IC50 and half-life data for 18 compounds are collected here from patent US20230159445A1, “STAT INHIBITORY COMPOUNDS AND COMPOSITIONS” (JANPIX LIMITED, priority 2020, published 2023).

In one data set the test system is MV4-11 cells. As to the kind of experiment: MV4-11 Cell Cytotoxicity Assay (CellTiter-Blue, 72 h). Format: cell-based, human. As to conditions: MV-4-11 cells. A digest of the protocol: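 Viability read-out: CellTiter-Blue, 1 h, fluorescence 560/590 nm. Preceded by 72 h exposure (37° C, 5% CO2) to twofold dilution series from 50 μM, triplicate, 0.5% DMSO vehicle, applied 24 h after plating.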
(Alamar Blue is a resazurin reagent that responds to reducing activity.)

The next data set has as its system glutathione (GSH). The experiment in a line: Reactivity Profiling with Glutathione (GSH), half-life by HPLC. Conditions: 5 mM glutathione (GSH) in IMDM with 10% FBS.
For data set [1], the system named is normal human fibroblast (NHF) cells. The experiment in a line: NHF Cell Cytotoxicity Assay (CellTiter-Blue, 72 h), off-target effects. It counts as cell-based. Conditions: pooled NHF cells. The method, then:
In some embodiments, the off-target effects of the compounds are evaluated in healthy human cells, such as in a normal human fibroblast (NHF) cell cytotoxicity assay.
Cell viability was examined following treatment at various concentrations of inhibitor (0.097656-50 μM) using a cell Titer-Blue cell viability assay. 1×10^4 normal human fibroblast cells per well were plated in 96-well assay plates in culture medium. All cells are grown in DMEM, IMDM and RPMI-1640 were supplemented with 10% FBS. After 24 hours, test compounds and vehicle controls are added to appropriate wells so the final volume was 100 μl in each well. The cells are cultured for the desired test exposure period (72 hours) at 37° C. and 5% CO2. The assay plates are removed from 37° C. incubator and 20 μL/well of CellTiter-Blue® Reagent is added. The plates are incubated using standard cell culture conditions for 1-4 hours and the plates are shaken for 10 seconds and record fluorescence at 560/590nm. For each sample well, value is normalized between the DMSO control and the highest concentration in case of plateau, and converted into a percentage. In the absence of plateau, minimum lecture is obtained from a different sample within the same experiment. For each concentration, the four replicates are averaged and standard deviation calculated. Data is fitted to a log(inhibitor) vs response curve with variable slope model using Microsoft Excel, obtaining IC50 and Hill slope variables.
A person skilled in the art would appreciate that a higher IC50 value in this NHF assay can indicate lower off-target effects.

Broadly, the IC50 is the concentration needed to halve the response being measured. The term half-life denotes how long it takes for the measured level to halve. For the compound `O=C(O)c1ccc(N(Cc2cc(C3CC3)cc(C3CC3)c2)C(=O)CN(Cc2cnccc2C(F)(F)F)S(=O)(=O)c2c(F)c(F)c(F)c(F)c2F)c(OC2CC2)c1` [Compound 1163, 3-cyclopropoxy-4-(N-(3,5-dicyclopropylbenzyl)-2-(N-((4-(trifluoromethyl)pyridin-3-yl)methyl)-(2,3,4,5,6-pentafluoro-phenyl)sulfonamido)acetamido)benzoic acid], in the data set on MV4-11 cells (Homo sapiens, MV4-11), the IC50 fell in the range of 0.01 to 316 nM. The compound further yielded a half-life at 25 μM in the data set on glutathione (GSH) of 2.37 to 4.12 h.

In the data set with MV4-11 cells (Homo sapiens, MV4-11), `COc1cc(C(=O)O)ccc1N(Cc1cc(C2CC2)cc(N2CCCC2)c1)C(=O)CN(Cc1cnccc1C(F)(F)F)S(=O)(=O)c1c(F)c(F)c(F)c(F)c1F` [Compound 1165, 4-(N-(3-cyclopropyl-5-(pyrrolidin-1-yl)benzyl)-2-(N-((4-(trifluoromethyl)pyridin-3-yl)methyl)-(2,3,4,5,6-pentafluoro-phenyl)sulfonamido)acetamido)-3-methoxybenzoic acid] yielded an IC50 of 316 to 1000 nM. Moreover, the half-life at 25 μM in the data set with glutathione (GSH) lay within 0.00167 to 2.37 h.

`COc1cc(C(=O)O)ccc1N(Cc1cc(C2CC2)cc(C(C)(C)C)c1)C(=O)CN(Cc1ncc(F)cc1Cl)S(=O)(=O)c1c(F)c(F)c(F)c(F)c1F` [Compound 1179, 4-(N-(3-(tert-butyl)-5-cyclopropylbenzyl)-2-(N-((3-chloro-5-fluoropyridin-2-yl)methyl)-(2,3,4,5,6-pentafluorophenyl)sulfon-amido)acetamido)-3-methoxybenzoic acid] came in with an IC50 in the data set with MV4-11 cells (Homo sapiens, MV4-11) of 0.01 to 316 nM. In the data set with glutathione (GSH), the half-life at 25 μM was 2.37 to 4.12 h. Regarding `COc1cc(C(=O)O)ccc1N(Cc1cc(C2CC2)cc(C(C)(C)C)c1)C(=O)CN(Cc1ccc(F)cc1C#N)S(=O)(=O)c1c(F)c(F)c(F)c(F)c1F` [Compound 1180, 4-(N-(3-(tert-butyl)-5-cyclopropylbenzyl)-2-(N-(2-cyano-4-fluorobenzyl)-(2,3,4,5,6-pentafluorophenyl)sulfon-amido)acetamido)-3-methoxybenzoic acid], the half-maximal inhibitory concentration (IC50) in the data set with MV4-11 cells (Homo sapiens, MV4-11) fell in the range of 0.01 to 316 nM. Further, the half-life at 25 μM with glutathione (GSH) is 2.37 to 4.12 h. Regarding `Cc1cc(C(=O)O)cc(C)c1N(Cc1cc(C2CC2)cc(C2CC2)c1)C(=O)CN(Cc1ccc(F)cc1Cl)S(=O)(=O)c1c(F)c(F)c(F)c(F)c1F` [Compound 1188, 4-(2-(N-(2-chloro-4-fluorobenzyl)-(2,3,4,5,6-pentafluorophenyl)sulfon-amido)-N-(3,5-dicyclopropylbenzyl)acetamido)-3,5-dimethylbenzoic acid], the 50% inhibitory concentration (IC50) is 316 to 1000 nM in the data set with MV4-11 cells (Homo sapiens, MV4-11) and 0.001 to 10 µM in data set [1] (Homo sapiens, Fibroblast). For `CC(C)(C)c1cc(CN(C(=O)CN(Cc2ccc(F)cc2Cl)S(=O)(=O)c2c(F)c(F)c(F)c(F)c2F)c2ccc(C(=O)O)cc2C2CC2)cc(C2CC2)c1` [Compound 1193, 4-(N-(3-(tert-butyl)-5-cyclopropylbenzyl)-2-(N-(2-chloro-4-fluorobenzyl)-(2,3,4,5,6-pentafluorophenyl)sulfon-amido)acetamido)-3-cyclopropylbenzoic acid], the IC50 with MV4-11 cells lay in the range of 0.01 to 316 nM; in data set [1], 10 to 20 µM. Turning to `Cc1cc(C(=O)O)cc(C)c1N(Cc1cc(C2CC2)cc(C(C)(C)C)c1)C(=O)CN(Cc1c(F)c(F)c(F)c(F)c1F)S(=O)(=O)c1c(F)c(F)c(F)c(F)c1F` [Compound 1201, 4-(N-(3-(tert-butyl)-5-cyclopropylbenzyl)-2-(N-((perfluorophenyl)methyl)-(2,3,4,5,6-pentafluorophenyl)sulfonamido)acetamido)-3,5-dimethylbenzoic acid], in the data set with MV4-11 cells (Homo sapiens, MV4-11), the half-maximal inhibitory concentration (IC50) was 316 to 1000 nM. Besides, in the data set with glutathione (GSH), the half-life at 25 μM was 9.23 to 1670 h. As for `Cc1cc(C(=O)O)cc(C)c1N(Cc1cc(C2CC2)cc(C2CC2)c1)C(=O)CN(Cc1c(F)c(F)c(F)c(F)c1F)S(=O)(=O)c1c(F)c(F)c(F)c(F)c1F` [Compound 1204, 4-(N-(3,5-dicyclopropylbenzyl)-2-(N-((perfluorophenyl)methyl)-(2,3,4,5,6-pentafluoro-phenyl)sulfonamido)acetamido)-3,5-dimethylbenzoic acid], the IC50 lay within 316 to 1000 nM in the data set with MV4-11 cells (Homo sapiens, MV4-11) and 0.001 to 10 µM in data set [1] (Homo sapiens, Fibroblast). Regarding `CN(C)c1cc(C(=O)O)ccc1N(Cc1cc(C2CC2)cc(N2CCCC2)c1)C(=O)CN(Cc1ccc(F)cc1Cl)S(=O)(=O)c1c(F)c(F)c(F)c(F)c1F` [Compound 1212, 4-(2-(N-(2-chloro-4-fluorobenzyl)-(2,3,4,5,6-pentafluorophenyl)sulfon-amido)-N-(3-cyclopropyl-5-(pyrrolidin-1-yl)benzyl)acetamido)-3-(dimethylamino) benzoic acid], the half-maximal inhibitory concentration (IC50) was in the range of 316 to 1000 nM in the data set on MV4-11 cells (Homo sapiens, MV4-11) and 10 to 20 µM in data set [1] (Homo sapiens, Fibroblast). Take `CC(C)(C)c1cc(CN(C(=O)CN(Cc2ccccc2C#N)S(=O)(=O)c2c(F)c(F)c(F)c(F)c2F)c2ccc(C(=O)O)cc2OC2CC2)cc(C2CC2)c1` [Compound 1224, 4-(N-(3-(tert-butyl)-5-cyclopropylbenzyl)-2-(N-(2-cyanobenzyl)-(2,3,4,5,6-pentafluorophenyl)sulfon-amido)acetamido)-3-cyclopropoxybenzoic acid]: the half-maximal inhibitory concentration (IC50) in data set [1] (Homo sapiens, Fibroblast) was in the range of 0.001 to 10 µM. The compound `O=C(O)c1ccc(N(Cc2cc(C3CC3)cc(C3CC3)c2)C(=O)CN(Cc2ccc(F)cc2Cl)S(=O)(=O)c2ccc(F)nc2)c(OC2CC2)c1` [Compound 1225, 4-(2-(N-(2-chloro-4-fluorobenzyl)-(6-fluoropyridine)-3-sulfonamido)-N-(3,5-dicyclopropylbenzyl)acetamido)-3-cyclopropoxybenzoic acid] showed a concentration for half-maximal inhibition (IC50) in the data set on MV4-11 cells (Homo sapiens, MV4-11) of 3160 to 100000 nM. In the data set on glutathione (GSH), this compound gave a half-life at 25 μM of 9.23 to 1670 h. `COc1ccccc1CN(CC(=O)N(Cc1cc(C2CC2)cc(C(C)(C)C)c1)c1ccc(C(=O)O)cc1OC1CC1)S(=O)(=O)c1c(F)c(F)c(F)c(F)c1F` [Compound 1234, 4-(N-(3-(tert-butyl)-5-cyclopropylbenzyl)-2-(N-(2-methoxybenzyl)-(2,3,4,5,6-pentafluoro-phenyl)sulfonamido)acetamido)-3-cyclopropoxybenzoic acid] yielded an IC50 in the data set with MV4-11 cells (Homo sapiens, MV4-11) of 316 to 1000 nM. The compound further displayed a half-life at 25 μM in the data set with glutathione (GSH) of 4.12 to 9.23 h.

`CC(C)(C)c1cc(CN(C(=O)CN(Cc2ccccc2OC(F)(F)F)S(=O)(=O)c2c(F)c(F)c(F)c(F)c2F)c2ccc(C(=O)O)cc2OC2CC2)cc(C2CC2)c1` [Compound 1235, 4-(N-(3-(tert-butyl)-5-cyclopropylbenzyl)-2-(N-(2-(trifluoromethoxy)benzyl)-(2,3,4,5,6-pentafluoro-phenyl)sulfonamido)acetamido)-3-cyclopropoxybenzoic acid] showed a half-inhibitory concentration (IC50) in the data set on MV4-11 cells (Homo sapiens, MV4-11) of 316 to 1000 nM. Besides, in the data set with glutathione (GSH), the half-life at 25 μM lay within 9.23 to 1670 h. In the data set with MV4-11 cells (Homo sapiens, MV4-11), `CN(C)c1ccccc1CN(CC(=O)N(Cc1cc(C2CC2)cc(C(C)(C)C)c1)c1ccc(C(=O)O)cc1OC1CC1)S(=O)(=O)c1c(F)c(F)c(F)c(F)c1F` [Compound 1236, 4-(N-(3-(tert-butyl)-5-cyclopropylbenzyl)-2-(N-(2-(dimethylamino)benzyl)-(2,3,4,5,6-pentafluorophenyl)sulfon-amido)acetamido)-3-cyclopropoxybenzoic acid] gave an IC50 of 316 to 1000 nM. The half-life at 25 μM with glutathione (GSH) is 9.23 to 1670 h.

On to `CC(C)(C)c1cc(CN(C(=O)CN(Cc2ccccc2N2CCCC2)S(=O)(=O)c2c(F)c(F)c(F)c(F)c2F)c2ccc(C(=O)O)cc2OC2CC2)cc(C2CC2)c1` [Compound 1237, 4-(N-(3-(tert-butyl)-5-cyclopropylbenzyl)-2-(N-(2-(pyrrolidin-1-yl)benzyl)-(2,3,4,5,6-pentafluoro-phenyl)sulfonamido)acetamido)-3-cyclopropoxybenzoic acid], for which, in the data set with MV4-11 cells (Homo sapiens, MV4-11), the concentration for half-maximal inhibition (IC50) was 316 to 1000 nM. In the data set on glutathione (GSH), this compound showed a half-life at 25 μM of 9.23 to 1670 h. For `CCc1cc(C(=O)O)ccc1N(Cc1cc(C2CC2)cc(C2CC2)c1)C(=O)CN(Cc1ccc(F)cc1Cl)S(=O)(=O)c1c(F)c(F)c(F)c(F)c1F` [Compound 1243, 4-(2-(N-(2-chloro-4-fluorobenzyl)-(2,3,4,5,6-pentafluorophenyl)sulfon-amido)-N-(3,5-dicyclopropylbenzyl)acetamido)-3-ethylbenzoic acid], the half-maximal inhibitory concentration (IC50) in data set [1] (Homo sapiens, Fibroblast) was in the range of 10 to 20 µM. Still for that read-out and setting: to `CC(C)c1cc(C(=O)O)ccc1N(Cc1cc(C2CC2)cc(C2CC2)c1)C(=O)CN(Cc1ccc(F)cc1Cl)S(=O)(=O)c1c(F)c(F)c(F)c(F)c1F` [Compound 1244, 4-(2-(N-(2-chloro-4-fluorobenzyl)-(2,3,4,5,6-pentafluorophenyl)sulfon-amido)-N-(3,5-dicyclopropylbenzyl)acetamido)-3-isopropylbenzoic acid] belongs 10 to 20 µM. The same measure, in the same setting: to `O=C(O)c1ccc(N(Cc2cc(C3CC3)cc(C3CC3)c2)C(=O)CN(Cc2ccc(F)cc2Cl)S(=O)(=O)c2c(F)c(F)c(F)c(F)c2F)c(OC2CCSC2)c1` (centres unmarked) [Compound 1264, 4-(2-(N-(2-chloro-4-fluorobenzyl)-(2,3,4,5,6-pentafluorophenyl)sulfon-amido)-N-(3,5-dicyclopropylbenzyl)acetamido)-3-((tetrahydrothiophen-3-yl)oxy)benzoic acid] belongs 10 to 20 µM.
